Assay results as given in ChEMBL document CHEMBL1124434, “2H-[1]benzopyrano[3,4-b]pyridines: synthesis and activity at central monoamine receptors” (J Med Chem, 1989).

Experiments:
[1] = target: T1, 5-hydroxytryptamine receptor 1A (Rattus norvegicus, UniProt P19327); assay: (§1) Concentration necessary to achieve half maximal inhibition of [3H]8-Hydroxy-2-(di-n-propylamino)tetralin binding to 5-hydroxytryptamine 1A receptor at 1 uM
T1 sequence (P19327 whole entry): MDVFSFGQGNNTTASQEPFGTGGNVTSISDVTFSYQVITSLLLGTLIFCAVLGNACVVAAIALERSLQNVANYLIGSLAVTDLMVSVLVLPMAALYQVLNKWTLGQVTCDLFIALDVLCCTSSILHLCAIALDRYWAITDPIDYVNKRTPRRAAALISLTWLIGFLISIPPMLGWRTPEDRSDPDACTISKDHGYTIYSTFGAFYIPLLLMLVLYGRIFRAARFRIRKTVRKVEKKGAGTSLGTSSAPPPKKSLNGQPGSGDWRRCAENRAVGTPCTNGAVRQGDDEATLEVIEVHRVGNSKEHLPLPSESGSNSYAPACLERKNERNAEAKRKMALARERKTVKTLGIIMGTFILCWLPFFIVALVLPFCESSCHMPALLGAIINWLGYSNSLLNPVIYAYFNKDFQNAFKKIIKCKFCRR

[2] = target: T2, 5-hydroxytryptamine receptor 1B (Rattus norvegicus, UniProt P28564); assay: Concentration necessary to achieve half maximal inhibition of [125I]- Iodocyanopindolol, binds to 5-hydroxytryptamine 1B receptor at 1 uM
T2 sequence (P28564 whole entry): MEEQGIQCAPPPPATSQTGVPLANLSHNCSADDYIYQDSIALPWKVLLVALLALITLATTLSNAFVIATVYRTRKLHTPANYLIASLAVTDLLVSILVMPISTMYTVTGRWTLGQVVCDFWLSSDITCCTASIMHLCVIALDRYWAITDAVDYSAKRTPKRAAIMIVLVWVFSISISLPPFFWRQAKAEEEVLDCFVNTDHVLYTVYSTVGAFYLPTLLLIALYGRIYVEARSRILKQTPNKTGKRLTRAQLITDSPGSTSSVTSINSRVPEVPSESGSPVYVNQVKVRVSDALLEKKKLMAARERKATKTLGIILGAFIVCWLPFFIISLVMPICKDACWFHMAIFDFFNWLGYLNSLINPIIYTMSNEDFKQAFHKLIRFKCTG

[3] = target: T3, Serotonin 2 (5-HT2) receptor (Rattus norvegicus, UniProt P30994+P08909+P14842); assay: (§2) Concentration necessary to achieve half maximal inhibition of [3H]ketanserin, binds to 5-hydroxytryptamine 2 receptor at 1 uM; assay type: protein assay
[4] = target: T4, Alpha-2A adrenergic receptor (Bos taurus, UniProt Q28838); assay: Concentration necessary to achieve half maximal inhibition of [3H]clonidine binding to alpha-2 adrenergic receptor at 1 uM
T4 sequence (Q28838 whole entry): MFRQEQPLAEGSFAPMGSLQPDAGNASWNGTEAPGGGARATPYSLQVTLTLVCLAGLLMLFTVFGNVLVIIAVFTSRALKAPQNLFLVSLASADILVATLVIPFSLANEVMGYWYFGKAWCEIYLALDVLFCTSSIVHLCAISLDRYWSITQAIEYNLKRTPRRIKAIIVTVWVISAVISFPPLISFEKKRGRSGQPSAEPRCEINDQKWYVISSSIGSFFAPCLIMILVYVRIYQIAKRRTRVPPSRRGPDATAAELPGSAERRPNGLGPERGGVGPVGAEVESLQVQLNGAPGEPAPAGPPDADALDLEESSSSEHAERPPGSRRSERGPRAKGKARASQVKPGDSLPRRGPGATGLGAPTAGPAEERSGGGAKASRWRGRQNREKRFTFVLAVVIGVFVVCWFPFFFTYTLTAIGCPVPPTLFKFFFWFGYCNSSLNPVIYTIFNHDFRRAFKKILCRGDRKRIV

[5] = target: T5, Dopamine receptor (Bos taurus) (UniProt Q95136+P20288); assay: (§3) Concentration necessary to achieve half maximal inhibition of [3H](+)-[…]-6,7-dihydroxy-1,2,3,4-tetrahydronaphthalene binding to dopamine receptor at 1 uM; assay type: protein assay
[6] = target: T5, Dopamine receptor (Bos taurus); assay: (§4) Concentration necessary to achieve half maximal inhibition of [3H]spiperone binding dopamine receptor at 1 uM; assay type: protein assay
[7] = target: T3, Serotonin 2 (5-HT2) receptor; assay: (§5) Concentration necessary to achieve half maximal inhibition of [3H]ketanserin binding to 5-hydroxytryptamine 2 receptor at 1 uM; assay type: protein assay
[8] = target: 5-hydroxytryptamine receptor 1B (Rattus norvegicus) (UniProt P28564); assay: (§6) Concentration necessary to achieve half maximal inhibition of [125I]- Iodocyanopindolol binding to 5-hydroxytryptamine 1B receptor at 1 uM
5-hydroxytryptamine receptor 1B (Rattus norvegicus), sequence (P28564 whole entry): as the sequence (P28564 whole entry) above

[9] = target: T6, Serotonin 2 (5-HT2) receptor (Rattus norvegicus) (UniProt P30994+P08909+P14842); assay: as §5; assay type: protein assay
T6 sequence (P08909 whole entry, looked up): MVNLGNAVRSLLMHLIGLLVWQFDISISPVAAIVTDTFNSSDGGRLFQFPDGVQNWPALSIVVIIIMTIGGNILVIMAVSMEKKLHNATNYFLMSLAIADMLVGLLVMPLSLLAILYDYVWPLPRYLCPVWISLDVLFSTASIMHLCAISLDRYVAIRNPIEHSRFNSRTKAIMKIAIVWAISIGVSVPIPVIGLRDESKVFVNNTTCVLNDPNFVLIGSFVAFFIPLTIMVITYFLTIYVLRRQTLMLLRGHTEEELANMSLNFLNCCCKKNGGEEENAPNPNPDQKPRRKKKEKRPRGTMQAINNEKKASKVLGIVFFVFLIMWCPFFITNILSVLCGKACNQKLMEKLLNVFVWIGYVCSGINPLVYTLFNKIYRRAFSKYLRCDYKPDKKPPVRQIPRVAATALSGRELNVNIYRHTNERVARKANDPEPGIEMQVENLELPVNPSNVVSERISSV
T6 sequence (P14842 whole entry, looked up): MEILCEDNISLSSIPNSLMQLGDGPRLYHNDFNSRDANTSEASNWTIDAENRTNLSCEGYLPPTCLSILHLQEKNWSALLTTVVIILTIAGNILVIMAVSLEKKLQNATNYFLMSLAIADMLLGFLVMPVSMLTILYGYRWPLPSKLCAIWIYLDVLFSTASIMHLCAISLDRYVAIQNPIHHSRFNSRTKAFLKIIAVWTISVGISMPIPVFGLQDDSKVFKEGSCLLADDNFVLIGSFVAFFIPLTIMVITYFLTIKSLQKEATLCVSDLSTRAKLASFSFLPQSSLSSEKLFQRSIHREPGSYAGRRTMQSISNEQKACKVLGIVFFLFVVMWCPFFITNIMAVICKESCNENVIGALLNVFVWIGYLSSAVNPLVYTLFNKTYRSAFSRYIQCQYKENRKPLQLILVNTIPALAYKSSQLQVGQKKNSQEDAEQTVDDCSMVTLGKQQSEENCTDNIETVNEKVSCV
T6 sequence (P30994 whole entry, looked up): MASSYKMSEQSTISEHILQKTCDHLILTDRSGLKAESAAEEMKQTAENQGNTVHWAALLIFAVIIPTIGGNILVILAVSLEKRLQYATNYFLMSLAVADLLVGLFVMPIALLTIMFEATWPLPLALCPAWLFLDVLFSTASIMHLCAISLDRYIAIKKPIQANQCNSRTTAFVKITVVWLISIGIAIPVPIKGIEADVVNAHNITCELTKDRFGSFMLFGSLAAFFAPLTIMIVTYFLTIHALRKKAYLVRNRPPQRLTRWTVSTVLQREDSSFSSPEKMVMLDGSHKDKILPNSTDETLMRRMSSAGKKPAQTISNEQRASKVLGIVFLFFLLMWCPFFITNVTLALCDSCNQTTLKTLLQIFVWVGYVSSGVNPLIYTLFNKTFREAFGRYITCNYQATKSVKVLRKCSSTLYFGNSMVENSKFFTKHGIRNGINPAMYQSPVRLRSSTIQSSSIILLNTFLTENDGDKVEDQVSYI

[10] = target: T7, Alpha-2A adrenergic receptor (Bos taurus) (UniProt Q28838); assay: Concentration necessary to achieve half maximal inhibition of [3H]clonidine binding to alpha-2 adrenergic receptorat 1 uM
T7 sequence (whole entry): T4 sequence (Q28838 whole entry)

[11] = target: T8, 5-hydroxytryptamine receptor 1A (Rattus norvegicus) (UniProt P19327); assay: as §1
T8 sequence (whole entry): T1 sequence (P19327 whole entry)

[12] = target: T9, Dopamine receptor (Bos taurus, UniProt Q95136+P20288); assay: as §3; assay type: protein assay
[13] = target: T9, Dopamine receptor; assay: as §4; assay type: protein assay
[14] = target: T6, Serotonin 2 (5-HT2) receptor (Rattus norvegicus); assay: as §2; assay type: protein assay
[15] = target: T3, Serotonin 2 (5-HT2) receptor; assay: Concentration necessary to achieve half maximal inhibition of [3H]-ketanserin binding to 5-hydroxytryptamine 2 receptor; assay type: protein assay
[16] = target: T4, Alpha-2A adrenergic receptor
Description: Concentration necessary to achieve half maximal inhibition of [3H]clonidine binding to Alpha-2 adrenergic receptor at 1 uM

[17] = target: T2, 5-hydroxytryptamine receptor 1B; assay: as §6

CCCN1CCC=C2c3c(OC)cccc3OCC21 (stereo unspecified)
IC50 [1]: 1.8 nM | IC50 [2]: 1320 nM | IC50 [3]: 0.839 µM | IC50 [4]: 151 nM | Change [5]: -13% | Change [6]: -36%

CN(C)CCCSc1ccccc1NC(=O)/C=C/c1ccccc1 [CINANSERIN]
IC50 [7]: 0.002 µM

COc1ccc(C)c2c1OC[C@@H]1[C@@H]2CCCN1C
IC50 [1]: 19 nM | Change [8]: -35% | Change [9]: -44% | Change [10]: -12% | Change [5]: -6% | Change [6]: -15%

CN1CCC[C@@H]2c3cc(O)ccc3OC[C@H]21
Change [11]: -13% | Change [8]: 6% | Change [9]: -27% | Change [10]: -64% | IC50 [12]: 0.114 µM | IC50 [13]: 4.08 µM

CCCCN1CCC[C@@H]2c3cccc(O)c3OC[C@H]21
IC50 [1]: 1200 nM | Change [8]: 0% | Change [14]: -40% | IC50 [4]: 39 nM | IC50 [12]: 0.008 µM | IC50 [13]: 0.26 µM

CN1CCC[C@@H]2c3cccc(O)c3OC[C@H]21
Change [11]: -45% | Change [8]: -2% | IC50 [7]: 1.26 µM | Change [10]: -41% | IC50 [12]: 0.011 µM | Change [6]: -46%

CCCN1CCC[C@@H]2c3c(O)cccc3OC[C@H]21
IC50 [1]: 4 nM | Change [8]: -4% | IC50 [7]: 0.384 µM | IC50 [4]: 362 nM | Change [5]: -12% | Change [6]: -23%

CCCN1CCC[C@@H]2c3cc(O)ccc3OC[C@H]21
IC50 [1]: 1210 nM | Change [8]: -1% | Change [9]: -30% | IC50 [4]: 559 nM | IC50 [12]: 0.009 µM | IC50 [13]: 1.26 µM

Cc1ccc(O)c2c1[C@H]1CCCN(C)[C@@H]1CO2
IC50 [1]: 76 nM | Change [8]: -10% | IC50 [15]: 0.097 µM | IC50 [4]: 1020 nM | IC50 [12]: 0.026 µM | IC50 [13]: 0.17 µM

CCCN1CCC[C@@H]2c3c(OC)cccc3OC[C@H]21
IC50 [1]: 9 nM | Change [8]: -19% | IC50 [7]: 0.114 µM | IC50 [4]: 71 nM | Change [5]: -9% | Change [6]: -53%

CCCN1CCC[C@@H]2c3ccc(O)cc3OC[C@H]21
Change [11]: -17% | Change [8]: -1% | Change [9]: -14% | IC50 [4]: 249 nM | IC50 [12]: 0.016 µM | IC50 [13]: 4.83 µM

Clc1cccc(Cl)c1N=C1NCCN1 [CLONIDINE]
IC50 [16]: 2 nM

CCCN1CCC=C2c3cc(O)ccc3OCC21 (stereo unspecified)
IC50 [1]: 244 nM | Change [8]: 0% | Change [9]: -14% | IC50 [4]: 634 nM | IC50 [12]: 0.051 µM | IC50 [13]: 4.19 µM

CN1CCC=C2c3cc(O)ccc3OCC21 (stereo unspecified)
Change [11]: -42% | Change [8]: -6% | Change [9]: -32% | IC50 [12]: 0.02 µM | inhibition [6]: 3%

CCCN1CCC[C@@H]2c3c(OC)cc(C)cc3OC[C@H]21
IC50 [1]: 186 nM | Change [8]: -31% | IC50 [3]: 0.086 µM | IC50 [4]: 504 nM | Change [5]: -15% | Change [6]: -36%

FC(F)(F)c1cccc(N2CCNCC2)c1
IC50 [17]: 51 nM

CCCN1CCC=C2c3ccccc3OCC21 (stereo unspecified)
IC50 [1]: 74 nM | Change [8]: -11% | Change [9]: -22% | IC50 [4]: 208 nM | Change [5]: -15% | Change [6]: -13%

COc1cccc2c1OC[C@@H]1[C@@H]2CCCN1C
IC50 [1]: 253 nM | inhibition [8]: 7% | IC50 [7]: 0.92 µM | Change [10]: -24% | Change [5]: -23% | Change [6]: -22%

CCCN1CCC[C@@H]2c3ccccc3OC[C@H]21
IC50 [1]: 219 nM | Change [8]: -10% | IC50 [3]: 0.178 µM | IC50 [4]: 88 nM | Change [5]: -24% | Change [6]: -19%

CCCN1CCC=C2c3cccc(O)c3OCC21 (stereo unspecified)
Change [11]: -36% | Change [8]: -1% | Change [9]: -14% | Change [10]: -34% | Change [5]: -10% | Change [6]: -17%

CCCN1CCC[C@@H]2c3cccc(O)c3OC[C@H]21
IC50 [1]: 1000 nM | Change [8]: -2% | IC50 [7]: 1.1 µM | IC50 [4]: 77 nM | IC50 [12]: 0.03 µM | IC50 [13]: 0.26 µM

COc1cc(C)cc2c1[C@H]1CCCN(C)[C@@H]1CO2
IC50 [1]: 75 nM | IC50 [17]: 825 nM | IC50 [7]: 0.042 µM | IC50 [4]: 946 nM | Change [5]: -11% | Change [6]: -39%
